Results published in ChEMBL document CHEMBL3885861, “Open TG-GATES”.

Species on record: Rattus norvegicus
Assay: Open TG-GATES - Regimen: Daily Repeat
Assay type: toxicity, organism-based, Sprague-Dawley
Set-up: regimen Daily Repeat, gender Male, age 6 weeks
Details: in vivo, po, route gavage; for APTT / Bas / Eos / Fbg / Hb / Ht / Lym / MCH / MCHC / Mono / Neu / Plat / RBC / Ret: tissue Blood; for KIDNEY_L / KIDNEY_R / KIDNEY_TOTAL: tissue Kidney; for LIVER: tissue Liver; for ALP / ALT / AST / BUN / CRE / Ca / Cl / DBIL / GLC / IP / K / LDH / Na / PL / RALB / TBIL / TC / TG / TP / gamma-GTP: tissue Plasma
[1] = 10 mg/kg, 72 h, dose level Middle, time 3 day
[2] = 10 mg/kg, […], dose level Middle, time 7 day
[3] = 10 mg/kg, […], dose level Middle, time 14 day
[4] = 10 mg/kg, […], dose level Middle, time 28 day
[5] = 30 mg/kg, 72 h, dose level High, time 3 day
[6] = 30 mg/kg, […], dose level High, time 7 day
[7] = 30 mg/kg, […], dose level High, time 14 day
[8] = 30 mg/kg, […], dose level High, time 28 day

Structure (SMILES): O=C(CCCN1CCC(O)(c2ccc(Cl)cc2)CC1)c1ccc(F)cc1 [HALOPERIDOL]
- TERMINAL_BW [1]: 211.5 g
- APTT [1]: 16 s
- Bas [1]: 0%
- Eos [1]: 0.6%
- Fbg [1]: 205.8 mg/dL
- Hb [1]: 14.8 g/dL
- Ht [1]: 44.6%
- Lym [1]: 81.4%
- MCH [1]: 21.3 pg
- MCHC [1]: 33.3%
- Mono [1]: 5.8%
- Neu [1]: 12.2%
- Plat [1]: 127.9 x10_4/uL
- RBC [1]: 695.4 x10_4/ul
- Ret [1]: 4.6%
- KIDNEY_L [1]: 0.9 g
- KIDNEY_R [1]: 0.9 g
- KIDNEY_TOTAL [1]: 1.8 g
- LIVER [1]: 10.3 g
- ALP [1]: 873.2 IU/L
- ALT [1]: 41 IU/L
- AST [1]: 64 IU/L
- BUN [1]: 22.2 mg/dL
- CRE [1]: 0.5 mg/dL
- Ca [1]: 11.3 mg/dL
- Cl [1]: 106.2 meq/L
- DBIL [1]: 0.002 mg/dL
- GLC [1]: 180 mg/dL
- IP [1]: 7.8 mg/dL
- K [1]: 4.7 meq/L
- LDH [1]: 95 IU/L
- Na [1]: 138.8 meq/L
- PL [1]: 177.8 mg/dL
- RALB [1]: 4.2 g/dL
- TBIL [1]: 0.2 mg/dL
- TC [1]: 78.2 mg/dL
- TG [1]: 156.2 mg/dL
- TP [1]: 6.2 g/dL
- gamma-GTP [1]: 1.2 IU/L
- TERMINAL_BW [2]: 234.1 g
- TERMINAL_BW [3]: 281.3 g
- TERMINAL_BW [4]: 341 g
- APTT [2]: 16.8 s
- Bas [2]: 0%
- Eos [2]: 0.4%
- Fbg [2]: 215.6 mg/dL
- Hb [2]: 15 g/dL
- Ht [2]: 44.6%
- Lym [2]: 75.4%
- MCH [2]: 21 pg
- MCHC [2]: 33.7%
- Mono [2]: 5%
- Neu [2]: 19.2%
- Plat [2]: 99.5 x10_4/uL
- RBC [2]: 717.6 x10_4/ul
- Ret [2]: 3.7%
- APTT [3]: 16.3 s
- Bas [3]: 0%
- Eos [3]: 0.2%
- Fbg [3]: 212.2 mg/dL
- Hb [3]: 14.7 g/dL
- Ht [3]: 43.9%
- Lym [3]: 75.6%
- MCH [3]: 20.3 pg
- MCHC [3]: 33.5%
- Mono [3]: 4.2%
- Neu [3]: 20%
- Plat [3]: 93.8 x10_4/uL
- RBC [3]: 722.2 x10_4/ul
- Ret [3]: 3.6%
- APTT [4]: 16 s
- Bas [4]: 0%
- Eos [4]: 0.4%
- Fbg [4]: 220.6 mg/dL
- Hb [4]: 15.3 g/dL
- Ht [4]: 45.8%
- Lym [4]: 78.8%
- MCH [4]: 19.5 pg
- MCHC [4]: 33.5%
- Mono [4]: 5.6%
- Neu [4]: 15.2%
- Plat [4]: 95.6 x10_4/uL
- RBC [4]: 788.6 x10_4/ul
- Ret [4]: 2.6%
- KIDNEY_L [2]: 1 g
- KIDNEY_R [2]: 1 g
- KIDNEY_TOTAL [2]: 1.9 g
- KIDNEY_L [3]: 1.1 g
- KIDNEY_R [3]: 1.1 g
- KIDNEY_TOTAL [3]: 2.2 g
- KIDNEY_L [4]: 1.2 g
- KIDNEY_R [4]: 1.2 g
- KIDNEY_TOTAL [4]: 2.4 g
- LIVER [2]: 10.8 g
- LIVER [3]: 12.3 g
- LIVER [4]: 13.4 g
- ALP [2]: 930.4 IU/L
- ALT [2]: 38.6 IU/L
- AST [2]: 66.8 IU/L
- BUN [2]: 20.2 mg/dL
- CRE [2]: 0.6 mg/dL
- Ca [2]: 11.4 mg/dL
- Cl [2]: 106.6 meq/L
- DBIL [2]: 0.004 mg/dL
- GLC [2]: 179.6 mg/dL
- IP [2]: 7.3 mg/dL
- K [2]: 4.6 meq/L
- LDH [2]: 84.8 IU/L
- Na [2]: 139 meq/L
- PL [2]: 174.4 mg/dL
- RALB [2]: 4 g/dL
- TBIL [2]: 0.3 mg/dL
- TC [2]: 84.8 mg/dL
- TG [2]: 123.8 mg/dL
- TP [2]: 6.2 g/dL
- gamma-GTP [2]: 1.8 IU/L
- ALP [3]: 773.8 IU/L
- ALT [3]: 29.2 IU/L
- AST [3]: 62.8 IU/L
- BUN [3]: 19.8 mg/dL
- CRE [3]: 0.4 mg/dL
- Ca [3]: 10.7 mg/dL
- Cl [3]: 107 meq/L
- DBIL [3]: 0.036 mg/dL
- GLC [3]: 184.2 mg/dL
- IP [3]: 7.8 mg/dL
- K [3]: 4.5 meq/L
- LDH [3]: 83.2 IU/L
- Na [3]: 138.4 meq/L
- PL [3]: 156 mg/dL
- RALB [3]: 4 g/dL
- TBIL [3]: 0.3 mg/dL
- TC [3]: 70.2 mg/dL
- TG [3]: 146 mg/dL
- TP [3]: 6.2 g/dL
- gamma-GTP [3]: 1.6 IU/L
- ALP [4]: 603.8 IU/L
- ALT [4]: 32.4 IU/L
- AST [4]: 66.8 IU/L
- BUN [4]: 20.4 mg/dL
- CRE [4]: 0.6 mg/dL
- Ca [4]: 10.7 mg/dL
- Cl [4]: 107.8 meq/L
- DBIL [4]: 0.062 mg/dL
- GLC [4]: 172.8 mg/dL
- IP [4]: 6.4 mg/dL
- K [4]: 4.7 meq/L
- LDH [4]: 72 IU/L
- Na [4]: 139.4 meq/L
- PL [4]: 141 mg/dL
- RALB [4]: 4.2 g/dL
- TBIL [4]: 0.3 mg/dL
- TC [4]: 63.6 mg/dL
- TG [4]: 133.4 mg/dL
- TP [4]: 6.7 g/dL
- gamma-GTP [4]: 1.6 IU/L
- TERMINAL_BW [5]: 179.6 g
- APTT [5]: 15.7 s
- Bas [5]: 0%
- Eos [5]: 1%
- Fbg [5]: 192.8 mg/dL
- Hb [5]: 15.9 g/dL
- Ht [5]: 47.3%
- Lym [5]: 83.4%
- MCH [5]: 21.2 pg
- MCHC [5]: 33.6%
- Mono [5]: 5%
- Neu [5]: 10.6%
- Plat [5]: 127.3 x10_4/uL
- RBC [5]: 751.8 x10_4/ul
- Ret [5]: 2.4%
- KIDNEY_L [5]: 0.8 g
- KIDNEY_R [5]: 0.9 g
- KIDNEY_TOTAL [5]: 1.7 g
- LIVER [5]: 7.7 g
- ALP [5]: 686.4 IU/L
- ALT [5]: 29.4 IU/L
- AST [5]: 62 IU/L
- BUN [5]: 28.2 mg/dL
- CRE [5]: 0.6 mg/dL
- Ca [5]: 11.2 mg/dL
- Cl [5]: 108.6 meq/L
- DBIL [5]: 0.002 mg/dL
- GLC [5]: 162.2 mg/dL
- IP [5]: 8.5 mg/dL
- K [5]: 4.7 meq/L
- LDH [5]: 176.8 IU/L
- Na [5]: 142.2 meq/L
- PL [5]: 159.6 mg/dL
- RALB [5]: 4.4 g/dL
- TBIL [5]: 0.2 mg/dL
- TC [5]: 88.2 mg/dL
- TG [5]: 80.8 mg/dL
- TP [5]: 6.2 g/dL
- gamma-GTP [5]: 1.2 IU/L
- TERMINAL_BW [6]: 213.8 g
- TERMINAL_BW [7]: 254.9 g
- TERMINAL_BW [8]: 329.7 g
- APTT [6]: 16.7 s
- Bas [6]: 0%
- Eos [6]: 0.4%
- Fbg [6]: 189.6 mg/dL
- Hb [6]: 15.4 g/dL
- Ht [6]: 46.2%
- Lym [6]: 82%
- MCH [6]: 21 pg
- MCHC [6]: 33.4%
- Mono [6]: 6.8%
- Neu [6]: 10.8%
- Plat [6]: 89.5 x10_4/uL
- RBC [6]: 735.6 x10_4/ul
- Ret [6]: 2.5%
- APTT [7]: 15.9 s
- Bas [7]: 0%
- Eos [7]: 0.4%
- Fbg [7]: 195.2 mg/dL
- Hb [7]: 15.4 g/dL
- Ht [7]: 46.4%
- Lym [7]: 84.6%
- MCH [7]: 20 pg
- MCHC [7]: 33.3%
- Mono [7]: 3.4%
- Neu [7]: 11.6%
- Plat [7]: 94.6 x10_4/uL
- RBC [7]: 773.4 x10_4/ul
- Ret [7]: 2.9%
- APTT [8]: 16.7 s
- Bas [8]: 0%
- Eos [8]: 0.6%
- Fbg [8]: 210.2 mg/dL
- Hb [8]: 15.2 g/dL
- Ht [8]: 45.1%
- Lym [8]: 84.4%
- MCH [8]: 19.4 pg
- MCHC [8]: 33.6%
- Mono [8]: 3.6%
- Neu [8]: 11.4%
- Plat [8]: 96.5 x10_4/uL
- RBC [8]: 782.8 x10_4/ul
- Ret [8]: 2.6%
- KIDNEY_L [6]: 0.9 g
- KIDNEY_R [6]: 0.9 g
- KIDNEY_TOTAL [6]: 1.8 g
- KIDNEY_L [7]: 1 g
- KIDNEY_R [7]: 1.1 g
- KIDNEY_TOTAL [7]: 2.1 g
- KIDNEY_L [8]: 1.2 g
- KIDNEY_R [8]: 1.2 g
- KIDNEY_TOTAL [8]: 2.4 g
- LIVER [6]: 10.3 g
- LIVER [7]: 10.8 g
- LIVER [8]: 12.8 g
- ALP [6]: 1009 IU/L
- ALT [6]: 38.8 IU/L
- AST [6]: 67.2 IU/L
- BUN [6]: 25.4 mg/dL
- CRE [6]: 0.5 mg/dL
- Ca [6]: 11.8 mg/dL
- Cl [6]: 106 meq/L
- DBIL [6]: 0.008 mg/dL
- GLC [6]: 164.2 mg/dL
- IP [6]: 7.6 mg/dL
- K [6]: 4.6 meq/L
- LDH [6]: 154.4 IU/L
- Na [6]: 140 meq/L
- PL [6]: 175.6 mg/dL
- RALB [6]: 4.1 g/dL
- TBIL [6]: 0.2 mg/dL
- TC [6]: 77.6 mg/dL
- TG [6]: 113.6 mg/dL
- TP [6]: 6.1 g/dL
- gamma-GTP [6]: 1.6 IU/L
- ALP [7]: 689.4 IU/L
- ALT [7]: 30.2 IU/L
- AST [7]: 65 IU/L
- BUN [7]: 24 mg/dL
- CRE [7]: 0.5 mg/dL
- Ca [7]: 11 mg/dL
- Cl [7]: 105.6 meq/L
- DBIL [7]: 0.012 mg/dL
- GLC [7]: 179.4 mg/dL
- IP [7]: 7.8 mg/dL
- K [7]: 4.7 meq/L
- LDH [7]: 178.6 IU/L
- Na [7]: 138.8 meq/L
- PL [7]: 162.4 mg/dL
- RALB [7]: 3.9 g/dL
- TBIL [7]: 0.3 mg/dL
- TC [7]: 76.2 mg/dL
- TG [7]: 107.4 mg/dL
- TP [7]: 6.1 g/dL
- gamma-GTP [7]: 1.2 IU/L
- ALP [8]: 528.8 IU/L
- ALT [8]: 31.6 IU/L
- AST [8]: 65.4 IU/L
- BUN [8]: 25.6 mg/dL
- CRE [8]: 0.5 mg/dL
- Ca [8]: 11.1 mg/dL
- Cl [8]: 107 meq/L
- DBIL [8]: 0.076 mg/dL
- GLC [8]: 177.8 mg/dL
- IP [8]: 7.6 mg/dL
- K [8]: 4.7 meq/L
- LDH [8]: 138.6 IU/L
- Na [8]: 140.2 meq/L
- PL [8]: 148.6 mg/dL
- RALB [8]: 3.9 g/dL
- TBIL [8]: 0.2 mg/dL
- TC [8]: 67 mg/dL
- TG [8]: 136.8 mg/dL
- TP [8]: 6.3 g/dL
- gamma-GTP [8]: 2.2 IU/L
